Measured values from US6613718B2, “Aryl ether derivatives and processes for their preparation and herbicidal and desiccant compositions containing them” (Ishihara Sangyo Kaisha, Ltd., priority 2001, dated 2003).

Columns and labels:
Assay type in all cases: in vivo
[1] = system: field corn (Zea mays L., var. Dekalb 535, CORN); assay: Post-emerge greenhouse screening, crop safety / corn selectivity (phytotoxicity rating); settings: 14 days after application
Source text: (§1) A standard greenhouse herbicide activity screening system was used to evaluate the herbicidal efficacy and crop safety of these test compounds. Seven broadleaf weed species including redroot pigweed (Amaranthus retroflexus, AMARE), velvetleaf (Abutilon theophrasti, ABUTH), sicklepod (Cassia obtusifolia, CASOB), ivyleaf morningglory (Ipomoea hederacea, IPOHE), lambsquarters (Chenopodium album, CHEAL), common ragweed (Ambrosia artemisiifolia L., AMBEL), and cocklebur (Xanthium strumarium, XANST) were used as test species. Four grass weed species including green foxtail (Setaria viridis, SETVI), barnyardgrass (Echinochloa crus-galli, ECHCG), johnsongrass (Sorghum halepense, SORHA), and large crabgrass (Digitaria sanguinalis, DIGSA) were also used. In addition, three crop species, field corn (Zea mays L., var. Dekalb 535, CORN), soybean (Glycine max L., var. Pella 86, SOY), and upland rice (Oryza sp., var.Tebonnet, RICE) were included.
(§2) All plants were grown in 10 cm square plastic pots which were filled with a sandy loam soil mix. For pre-emerge tests, seeds were planted one day prior to application of the test compounds. For post-emerge tests, seeds were planted 8-21 days prior to the test to allow emergence and good foliage development prior to application of the test substances. At the time of the post-emerge application, plants of all species were usually at the 2-3 leaf stage of development.
(§3) All test compounds were dissolved in acetone and applied to the test units in a volume of 187 1/ha. Test materials were applied at rates ranging from 15 g ai/ha to 1000 g ai/ha using a track sprayer equipped with a TJ8001E even flow flat fan spray nozzle. Plants were arranged on a shelf so that the top of the canopy (post-emerge) or top of the soil surface (pre-emerge) was 40-45 cm below the nozzle. Pressurized air was used to force the test solution through the nozzle as it was mechanically advanced (via electrically driven chain drive) over the top of all test plants/pots. This application simulates a typical commercial field herbicide application.
(§4) In the post-emerge test, a commercial non-ionic surfactant was also included (0.25% v/v) to enhance wetting of the leaf surfaces of target plants. Immediately after application, test units of the pre-emerge applications were watered at the soil surface to incorporate the test materials. Subsequently, these test units were bottom-watered. Post-emerge test units were always bottom-watered.
(§5) At 14 days after application of the test materials, phytotoxicity ratings were recorded. A rating scale of 0-100 was used as previously described in Research Methods in Weed Science, 2nd edition, B. Truelove, Ed., Southern Weed Science Society, Auburn University, Auburn, Ala., 1977. Briefly, “0” corresponds to no damage and “100” corresponds to complete death of all plants in the test unit. This scale was used both to determine efficacy against weed species and damage to crop species. Herbicide activity data for various compounds of this invention, which are shown by compound No. in Tables I-VI, are shown in Tables VIII-IX.

[2] = system: soybean (Glycine max L., var. Pella 86, SOY); assay: Post-emerge greenhouse screening, crop safety (phytotoxicity rating); settings: 14 days after application
Source text: as §1, §2, §3, §4, §5

[3] = system: upland rice (Oryza sp., var.Tebonnet, RICE); assay: as above; settings: 14 days after application
Source text: as §1, §2, §3, §4, §5

[4] = system: field corn (Zea mays L., var. Dekalb 535, CORN); assay: Pre-emerge greenhouse screening, crop safety (phytotoxicity rating); settings: 14 days after application
Source text: as §1, §2, §3, §4, §5

[5] = system: soybean (Glycine max L., var. Pella 86, SOY); assay: as above; settings: 14 days after application
Source text: as §1, §2, §3, §4, §5

[6] = system: upland rice (Oryza sp., var.Tebonnet, RICE); assay: as above; settings: 14 days after application
Source text: as §1, §2, §3, §4, §5

[7] = system: lambsquarters (Chenopodium album, CHEAL); assay: Pre-emerge greenhouse herbicide activity screening, phytotoxicity rating; settings: 14 days after application
Source text: as §1, §2, §3, §4, §5

[8] = system: green foxtail (Setaria viridis, SETVI); assay: as above; settings: 14 days after application
Source text: as §1, §2, §3, §4, §5

[9] = system: velvetleaf (Abutilon theophrasti, ABUTH); assay: as above; settings: 14 days after application
Source text: as §1, §2, §3, §4, §5

[10] = system: ivyleaf morningglory (Ipomoea hederacea, IPOHE); assay: as above; settings: 14 days after application
Source text: as §1, §2, §3, §4, §5

[11] = system: barnyardgrass (Echinochloa crus-galli, ECHCG); assay: as above; settings: 14 days after application
Source text: as §1, §2, §3, §4, §5

[12] = system: johnsongrass (Sorghum halepense, SORHA); assay: as above; settings: 14 days after application
Source text: as §1, §2, §3, §4, §5

[13] = system: large crabgrass (Digitaria sanguinalis, DIGSA); assay: as above; settings: 14 days after application
Source text: as §1, §2, §3, §4, §5

[14] = system: sicklepod (Cassia obtusifolia, CASOB); assay: as above; settings: 14 days after application
Source text: as §1, §2, §3, §4, §5

[15] = system: redroot pigweed (Amaranthus retroflexus, AMARE); assay: as above; settings: 14 days after application
Source text: as §1, §2, §3, §4, §5

[16] = system: common ragweed (Ambrosia artemisiifolia L., AMBEL); assay: as above; settings: 14 days after application
Source text: as §1, §2, §3, §4, §5

[17] = system: lambsquarters (Chenopodium album, CHEAL); assay: Post-emerge greenhouse herbicide activity screening, phytotoxicity rating
Source text: as §1, §2, §3, §4, §5

[18] = system: green foxtail (Setaria viridis, SETVI); assay: as above
Source text: as §1, §2, §3, §4, §5

[19] = system: velvetleaf (Abutilon theophrasti, ABUTH); assay: as above; settings: 14 days after application
Source text: as §1, §2, §3, §4, §5

[20] = system: ivyleaf morningglory (Ipomoea hederacea, IPOHE); assay: as above; settings: 14 days after application
Source text: as §1, §2, §3, §4, §5

[21] = system: barnyardgrass (Echinochloa crus-galli, ECHCG); assay: as above; settings: 14 days after application
Source text: as §1, §2, §3, §4, §5

[22] = system: johnsongrass (Sorghum halepense, SORHA); assay: as above; settings: 14 days after application
Source text: as §1, §2, §3, §4, §5

[23] = system: large crabgrass (Digitaria sanguinalis, DIGSA); assay: as above; settings: 14 days after application
Source text: as §1, §2, §3, §4, §5

[24] = system: sicklepod (Cassia obtusifolia, CASOB); assay: as above
Source text: as §1, §2, §3, §4, §5

[25] = system: redroot pigweed (Amaranthus retroflexus, AMARE); assay: as above
Source text: as §1, §2, §3, §4, §5

[26] = system: common ragweed (Ambrosia artemisiifolia L., AMBEL); assay: as above
Source text: as §1, §2, §3, §4, §5

[27] = 125 g ai/ha, 14 days after application
[28] = 250 g ai/ha, 14 days after application

Cn1c(C(F)(F)F)cc(=O)n(-c2cc(Oc3ccccc3N)c(Cl)cc2F)c1=S [Compound 1-48]
CORN crop damage, phytotoxicity rating (0-100 scale) ([1]; 125 g ai/ha): 0
CORN crop damage, phytotoxicity rating (0-100 scale) ([1]; 250 g ai/ha): 10
SOY crop damage, phytotoxicity rating (0-100 scale) ([2]; 125 g ai/ha): 0
SOY crop damage, phytotoxicity rating (0-100 scale) ([2]; 250 g ai/ha): 0
RICE crop damage, phytotoxicity rating (0-100 scale) ([3]; 125 g ai/ha): 0
RICE crop damage, phytotoxicity rating (0-100 scale) ([3]; 250 g ai/ha): 35
CORN crop damage, phytotoxicity rating (0-100 scale) ([4]; 125 g ai/ha): 0
CORN crop damage, phytotoxicity rating (0-100 scale) ([4]; 250 g ai/ha): 5
SOY crop damage, phytotoxicity rating (0-100 scale) ([5]; 125 g ai/ha): 0
SOY crop damage, phytotoxicity rating (0-100 scale) ([5]; 250 g ai/ha): 0
RICE crop damage, phytotoxicity rating (0-100 scale) ([6]; 125 g ai/ha): 0
RICE crop damage, phytotoxicity rating (0-100 scale) ([6]; 250 g ai/ha): 8
CHEAL phytotoxicity rating (0-100 scale) ([7]; 125 g ai/ha): 100
CHEAL phytotoxicity rating (0-100 scale) ([7]; 250 g ai/ha): 100
SETVI phytotoxicity rating (0-100 scale) ([8]; 125 g ai/ha): 90
SETVI phytotoxicity rating (0-100 scale) ([8]; 250 g ai/ha): 99
ABUTH phytotoxicity rating (0-100 scale) ([9]; 125 g ai/ha): 90
ABUTH phytotoxicity rating (0-100 scale) ([9]; 250 g ai/ha): 100
IPOHE phytotoxicity rating (0-100 scale) ([10]; 125 g ai/ha): 80
IPOHE phytotoxicity rating (0-100 scale) ([10]; 250 g ai/ha): 100
ECHCG phytotoxicity rating (0-100 scale) ([11]; 125 g ai/ha): 80
ECHCG phytotoxicity rating (0-100 scale) ([11]; 250 g ai/ha): 85
SORHA phytotoxicity rating (0-100 scale) ([12]; 125 g ai/ha): 55
SORHA phytotoxicity rating (0-100 scale) ([12]; 250 g ai/ha): 85
DIGSA phytotoxicity rating (0-100 scale) ([13]; 125 g ai/ha): 55
DIGSA phytotoxicity rating (0-100 scale) ([13]; 250 g ai/ha): 75
CASOB phytotoxicity rating (0-100 scale) ([14]; 125 g ai/ha): 0
CASOB phytotoxicity rating (0-100 scale) ([14]; 250 g ai/ha): 0
AMARE phytotoxicity rating (0-100 scale) ([15]; 125 g ai/ha): 100
AMARE phytotoxicity rating (0-100 scale) ([15]; 250 g ai/ha): 100
AMBEL phytotoxicity rating (0-100 scale) ([16]; 125 g ai/ha): 70
AMBEL phytotoxicity rating (0-100 scale) ([16]; 250 g ai/ha): 70
CHEAL phytotoxicity rating (0-100 scale) ([17]; 31.3 g ai/ha): 80
CHEAL phytotoxicity rating (0-100 scale) ([17]; 62.5 g ai/ha): 99
CHEAL phytotoxicity rating (0-100 scale) [17, 27]: 100
CHEAL phytotoxicity rating (0-100 scale) [17, 28]: 100
SETVI phytotoxicity rating (0-100 scale) ([18]; 31.3 g ai/ha): 0
SETVI phytotoxicity rating (0-100 scale) ([18]; 62.5 g ai/ha): 30
SETVI phytotoxicity rating (0-100 scale) [18, 27]: 50
SETVI phytotoxicity rating (0-100 scale) [18, 28]: 60
ABUTH phytotoxicity rating (0-100 scale) ([19]; 125 g ai/ha): 85
ABUTH phytotoxicity rating (0-100 scale) ([19]; 250 g ai/ha): 95
IPOHE phytotoxicity rating (0-100 scale) ([20]; 125 g ai/ha): 80
IPOHE phytotoxicity rating (0-100 scale) ([20]; 250 g ai/ha): 75
ECHCG phytotoxicity rating (0-100 scale) ([21]; 125 g ai/ha): 0
ECHCG phytotoxicity rating (0-100 scale) ([21]; 250 g ai/ha): 0
SORHA phytotoxicity rating (0-100 scale) ([22]; 125 g ai/ha): 0
SORHA phytotoxicity rating (0-100 scale) ([22]; 250 g ai/ha): 0
DIGSA phytotoxicity rating (0-100 scale) ([23]; 125 g ai/ha): 25
DIGSA phytotoxicity rating (0-100 scale) ([23]; 250 g ai/ha): 50
CASOB phytotoxicity rating (0-100 scale) ([24]; 31.3 g ai/ha): 50
CASOB phytotoxicity rating (0-100 scale) ([24]; 62.5 g ai/ha): 75
CASOB phytotoxicity rating (0-100 scale) [24, 27]: 75
CASOB phytotoxicity rating (0-100 scale) [24, 28]: 75
AMARE phytotoxicity rating (0-100 scale) ([25]; 31.3 g ai/ha): 100
AMARE phytotoxicity rating (0-100 scale) ([25]; 62.5 g ai/ha): 100
AMARE phytotoxicity rating (0-100 scale) [25, 27]: 100
AMARE phytotoxicity rating (0-100 scale) [25, 28]: 100
AMBEL phytotoxicity rating (0-100 scale) ([26]; 31.3 g ai/ha): 60
AMBEL phytotoxicity rating (0-100 scale) ([26]; 62.5 g ai/ha): 50
AMBEL phytotoxicity rating (0-100 scale) [26, 27]: 60
AMBEL phytotoxicity rating (0-100 scale) [26, 28]: 75
